In patent US11446269B2, “Methods of reducing or preventing oxidation of small dense LDL or membrane polyunsaturated fatty acids” (Amarin Pharmaceuticals Ireland Limited, priority 2014, dated 2022):

Key:
[1] = test system: HUVECs; assay: NO and ONOO^− release from HUVECs exposed to oxLDL, nanosensors (Example 8); type: cell-based, human; details: oxLDL 20 min, then agent 1 hour (EPA 10 μM, ATM 1.0 μM)
Method: Human umbilical vein endothelial cells (HUVECs) were isolated into primary cultures from female donors by Clonetics (San Diego, Calif.) and purchased as proliferating cells. All cell culture donors were healthy, with no pregnancy or prenatal complications. […] The confluent cells (4 to 5×10^5 cells/35 mm dish) were placed with minimum essential medium containing 3 mM L-arginine and 0.1 mM BH4 [(6R)-5,6,7,8-tetrahydrobiopterin]. Before experimental use, the cells (from second or third passage) were rinsed twice with Tyrode-HEPES buffer with 1.8 mM CaCl2.
The omega-3 fatty acids (O3FAs) cis-5,8,11,14,17-eicosapentaenoic acid (EPA) and docosahexaenoic acid (DHA) were purchased from Sigma-Aldrich (St. Louis, Mo.) and prepared initially at 11 mM in redistilled ethanol. Primary and secondary O3FA stock solutions were prepared and stored under argon at −20° C. […]
Oxidation was monitored by the use of measurements of TBARS. […] TBARS concentration was determined as malondialdehyde (MDA) equivalents with the use of an MDA standard curve. […]
The amperometric method (with a response time of 0.1 ms) provides a quantitative signal (current) that is directly proportional to changes (from basal levels) in NO or ONOO^− concentration. […] Basal NO or ONOO^− levels were measured by differential pulse voltammetry in separate experiments. […]

[2] = test system: sdLDL; assay: Copper-induced sdLDL oxidation (Example 12); type: biochemical, human; details: 10.0 μM, copper-induced oxidation 1 hour, vs vehicle

For `O=C(O)c1cccnc1` [Niacin, nicotinic acid], the “NO/ONOO^− Ratio” value [1] was 2.00 ± 0.52 and the NO release ([1]; unit printed in b302 only) was 431 ± 100 nM.
For `CC/C=C\C/C=C\C/C=C\C/C=C\C/C=C\CCCC(=O)O` [EPA, cis-5,8,11,14,17-eicosapentaenoic acid], the “reduction of sdLDL oxidation” value [2] was over 90%.
